Assay results as given in patent US11292809B2, “Crystals of glycyrrhizic acid derivatives, crystalline compositions, pharmaceutical compositions and uses thereof” (CHIA TAI TIANQING PHARMACEUTICAL GROUP CO., LTD., priority 2018, dated 2022).

How the values were obtained:
[1] = Color and clarity of solution test; type: physicochemical; settings: 0.5 g dissolved in 10 ml dilute ammonia solution (1→100)
Description: “Color and clarity of solution test” is particularly important, and also a required inspection item for active ingredients used in preparations for injection. Weigh 0.5 g of the crystalline form A obtained in example 5, dissolve it with 10 ml dilute ammonia solution (1→100), and the solution may be clear and colorless. If the solution is colored, compare it with the yellow 2 #standard color solution (Method 1, General Principles 0901, the Chinese Pharmacopoeia), and the former should not be intensely colored than the latter. If the solution is turbid, compare it with the turbidity 0.5 #standard solution (Method 1, General Principles 0902, the Chinese Pharmacopoeia), and the former should not be more intensely turbid than the latter.

[2] = Measurement of particle size and specific surface area; type: physicochemical
From the text: For the purpose of this application, “X10” represents the particle diameter corresponding to 10% of the particle size distribution, in other words, cumulative 10% of the particles in all the tested particles are smaller than X10; “X50” represents the particle size corresponding to 50% of the particle size distribution, in other words, cumulative 50% of the particles in all the tested particles are smaller than X50; “X90” represents the particle size corresponding to 90% of the particle size distribution, in other words, cumulative 90% of the particles in all the tested particles are smaller than X90.
Sv and Sm denote specific surface areas, i.e., total surface area of a material per unit volume (Sv) and total surface area of a material per unit of mass (Sm) respectively.
Particle size distribution is determined according to the laser method using the instrument below: full-automatic dry-wet laser particle sizer, VIBRI (HELOSBR).

[3] = test system: liver-injury animal models induced by different hepatotoxic agents; settings: cited from earlier work
[4] = particle size distribution, laser method
[5] = liver-injury animal models induced by different hepatotoxic agents

Row | Structure (SMILES) | clarity test ([1]; compared with turbidity 0.5# standard solution) | color of solution test ([1]; compared with yellow 2# standard color solution) | X10 [2, 4] | X50 [2, 4] | X90 [2, 4] | Sm ([2]; specific surface area per unit of mass) | Sv ([2]; specific surface area per unit volume) | hepatocyte degeneration and necrosis and inflammatory cell infiltration [3, 5] | hepatocyte regeneration [3, 5] | serum transaminase elevation in animals [3, 5] | effect against liver injury compared with natural glycyrrhizic acids ([3]; versus natural glycyrrhizic acids)
1 | CC1(C)[C@@H](O[C@H]2O[C@H](C(=O)[O-])[C@@H](O)[C@H](O)[C@H]2O[C@@H]2O[C@H](C(=O)[O-])[C@@H](O)[C@H](O)[C@H]2O)CC[C@]2(C)[C@H]3C(=O)C=C4[C@H]5C[C@@](C)(C(=O)O)CC[C@]5(C)CC[C@@]4(C)[C@]3(C)CC[C@@H]12.[Mg+2] [crystalline form A, magnesium isoglycyrrhizinate] | The solution is clear, and less | The solution is colorless, and less | 6.19 μm | 42.18 μm | 91.80 μm | 0.64 m^2/g | 0.44 m^2/cm^3 |  |  |  | 
2 | CC1(C)[C@@H](O[C@H]2O[C@H](C(=O)[O-])[C@@H](O)[C@H](O)[C@H]2O[C@@H]2O[C@H](C(=O)[O-])[C@@H](O)[C@H](O)[C@H]2O)CC[C@]2(C)[C@H]3C(=O)C=C4[C@H]5C[C@@](C)(C(=O)O)CC[C@]5(C)CC[C@@]4(C)[C@]3(C)CC[C@@H]12.[Mg+2] [magnesium isoglycyrrhizinate] |  |  |  |  |  |  |  | alleviate | promote | significantly inhibit | obviously superior
